PMC4320118, “Micheliolide Derivative DMAMCL Inhibits Glioma Cell Growth In Vitro and In Vivo” (PLoS ONE, 2015)

How the values were obtained:
[1] = system: U-87MG cells; assay: Apoptosis by Annexin V/PI flow cytometry, U-87MG; type: cell-based, human
[2] = system: Bcl-2 and Bax in C6 cells; assay: Western blotting of Bcl-2 and Bax, C6 cells; type: cell-based, rat; details: 60 μM and 120μM, 24 hr
Description: (§1) The cellular proteins were extracted from 10^7 cultured cells after drug treatments using RIPA lysis buffer (Promega, USA). Western blotting analysis was performed to determine cellular responses targeting apoptosis-related proteins including Bcl-2 and Bax. Briefly, C6 and U-87MG cells were treated with different doses of DMAMCL for 24 hr at 37°C. Then cells were washed twice with cold phosphate buffered saline (PBS) and lysed in RIPA buffer containing 1mmol/l PMSF (Pheylmethylsulfonyl fluoride, Sigma, USA) on ice for 30 min. The total proteins of cells were obtained by centrifugation at 12000 rpm for 15 min. Next, the lysate proteins were resolved by SDS-PAGE and transferred to the Immobilon-P membranes (Millipore, Billerica, MA, USA). The membranes were blocked by 5% nonfat milk in Tris-buffered saline with 0.1% Tween 20 (TBST) and immunoblotted with the antibodies against β-actin, Bcl-2 and Bax (Cellsignaling Technology, USA) at 4°C overnight. Then membranes were incubated with HRP-conjugated secondary antibody for 1.5 hr at room temperature. The targeting antibodies were stained with enhanced chemiluminescent reagents (Millipore, Billerica, MA, USA) and visualized by ChemiScope 3600 Mini systerm (Clinx Science Instruments, China).

[3] = system: Bcl-2 and Bax in U-87MG cells; assay: Western blotting of Bcl-2 and Bax, U-87MG cells; type: cell-based, human; details: 60 μM and 120μM, 24 hr
Description: as §1

Structure (SMILES): CC1=C2CC[C@@](C)(O)[C@@H]2[C@H]2OC(=O)[C@@H](CN(C)C)[C@@H]2CC1 [DMAMCL, dimethylaminomicheliolide]
- Surviving cells ([1]; 240 μM): few surviving
- Early and late apoptosis and necrosis ([1]; 24 hr post-treatment, dose-dependent): significantly increased early and late apoptosis and necrosis
- Bax expression (Western blot) [2]: up-regulated Bax expression
- Bcl-2 expression (Western blot) [2]: down-regulated Bcl-2 expression
- Bax expression (Western blot) [3]: up-regulated Bax expression
- Bcl-2 expression (Western blot) [3]: down-regulated Bcl-2 expression
